# Values joined by “and” are separate entries in the source; they are usually repeats but may differ in a detail not shown here. Equal entries are not always repeated. Where two headings read alike, the source gives them in different places.
# Experiments:
# [1] = test system: T1, Plasmodium falciparum Dd2-attB (parental line), asexual blood stages; test: microbe, parasite or virus in culture; parameters: species or system P. falciparum Dd2-attB in human erythrocytes; SYBR Green-I proliferation assay, Dd2-attB parental line, asexual blood stages; conditions: 72 h; for AC50: Plasmodium falciparum, DD2, Erythrocyte
# T1 construct: Dd2-attB, the isogenic parental line
# [2] = test system: T2, Plasmodium falciparum Dd2-attB-ScDHODH (transgenic line expressing yeast DHODH), asexual blood stages; test: organism not typed; parameters: replicate k of 3 (each line is one of three independent assays; the three lines of one compound and parasite line follow each other); conditions: 72 h, n = 1; for AC50: read-out: Individual replicates / Log AC50 (converted)
# T2 construct: Dd2-attB-ScDHODH, the transgenic line that expresses yeast DHODH
# Outline: (§1)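 The transgenic line overexpresses fumarate-dependent yeast DHODH, bypassing parasite mETC and ubiquinone-dependent parasite DHODH. A subset of compounds was run in three independent assays on both lines, and line differences were tested by two-sided Student's t-test.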
# [3] = test system: T1, Plasmodium falciparum Dd2-attB (parental line), asexual blood stages; test: microbe, parasite or virus in culture; parameters: replicate k of 3 (each line is one of three independent assays; the three lines of one compound and parasite line follow each other); conditions: n = 1; for Individual replicates / Log AC50 (M): 72 h; for AC50: Plasmodium falciparum, DD2, 72 h, read-out: Individual replicates / Log AC50 (converted)
# Outline: as §1
# [4] = read-out: Calculated / Average Log AC50 (M), mean of replicates, 72 h (converted)
SMILES,"AC50 [1, 4]",Individual replicates / Log AC50 (M) [2],AC50 [2],Individual replicates / Log AC50 (M) [3],AC50 [3],"Calculated / Average Log AC50 (M) ([1]; mean of replicates, inhibitor, Calculated / Average Log AC50 (M))",AC50 ([1]; read-out: Calculated / Average Log AC50 (M) (converted))
O=[N+]([O-])c1ccccc1NCc1ccc(O)c2ncccc12 [NCGC00184896-01],9.65e-06 M,-5.0486 Log AC50 (M),12.6 µM,-4.7986 Log AC50 (M) and -5.0986 Log AC50 (M) and -5.1486 Log AC50 (M),–,–,–
Oc1ccc(/C=C/c2c(F)cccc2F)c2cccnc12 [NCGC00184904-01],1e-05 M,-4.7486 Log AC50 (M) and -4.7986 Log AC50 (M),–,-5.0986 Log AC50 (M) and -5.0486 Log AC50 (M),14.2 µM,–,–
Oc1ccc(CCc2ccccc2F)c2cccnc12 [NCGC00184905-01],1.31e-05 M,–,15.9 µM,-5.1986 Log AC50 (M) and -4.7486 Log AC50 (M),–,–,–
CN(C)c1cnc2c(O)ccc([S+](=O)([O-])Nc3ccccc3F)c2c1 [NCGC00189501-01],9.29e-06 M,-4.9986 Log AC50 (M) and -4.7986 Log AC50 (M),14.2 µM,-5.0986 Log AC50 (M),12.6 µM,–,–
COc1cccc(NCc2ccc(O)c3ncccc23)n1 [NCGC00241024-01],1.13e-05 M,-4.8486 Log AC50 (M),12.6 µM,-4.8986 Log AC50 (M) and -5.0486 Log AC50 (M),12.6 µM,–,–
Oc1ccc(CNc2nccc3ccccc23)c2cccnc12 [NCGC00241025-01],7.67e-06 M,-5.2486 Log AC50 (M) and -4.7486 Log AC50 (M),–,-5.2486 Log AC50 (M) and -4.8986 Log AC50 (M) and -5.1986 Log AC50 (M),–,–,–
Oc1ccc(CNc2cc(C(F)(F)F)ccn2)c2cccnc12 [NCGC00241027-01],1e-05 M,-4.8486 Log AC50 (M),7.1 µM,-5.0986 Log AC50 (M) and -5.0486 Log AC50 (M),14.2 µM,–,–
Oc1ccc(CNc2cc(Br)ccn2)c2cccnc12 [NCGC00241030-01],6.58e-06 M,-5.2486 Log AC50 (M) and -5.1986 Log AC50 (M) and -4.8986 Log AC50 (M),–,-5.2486 Log AC50 (M) and -5.0486 Log AC50 (M),5.64 µM,–,–
COC(=O)c1ccc(O)c2ncc(N3CCN(C)CC3)cc12 [NCGC00241034-01],6.09e-06 M,-5.2486 Log AC50 (M) and -5.2986 Log AC50 (M) and -4.8486 Log AC50 (M),–,-5.2986 Log AC50 (M) and -5.0486 Log AC50 (M),5.03 µM,–,–
NC1CCN(c2cnc3c(O)ccc(C(=O)O)c3c2)CC1 [NCGC00241035-01],1.42e-05 M,–,17.8 µM,-4.7986 Log AC50 (M) and -4.9986 Log AC50 (M),17.8 µM,–,–
CCOC(=O)c1ccc(O)c2ncc(N3CCNCC3)cc12 [NCGC00241046-01],5.86e-06 M,-5.3486 Log AC50 (M),5.03 µM,-5.2986 Log AC50 (M) and -5.0986 Log AC50 (M),5.03 µM,–,–
CCOC(=O)c1ccc(O)c2ncc(N3CCC(C(=N)N)CC3)cc12 [NCGC00241051-01],1.08e-05 M,-4.7486 Log AC50 (M) and -4.8986 Log AC50 (M),–,-5.1486 Log AC50 (M),12.6 µM,–,–
CCOC(=O)c1ccc(O)c2ncc(NCC3CCCN(CCc4ccccc4)C3)cc12 (stereo not shown) [NCGC00241755-01],8.28e-06 M,-5.0986 Log AC50 (M),6.33 µM,-5.1486 Log AC50 (M) and -4.8986 Log AC50 (M),6.33 µM,–,–
O=C(O)c1ccc(O)c2ncc(NCC3CCCN(CCc4ccccc4)C3)cc12 (stereo not shown) [NCGC00241759-01],1.04e-05 M,-4.8486 Log AC50 (M),8.94 µM,-5.0486 Log AC50 (M),7.1 µM,–,–
CN1CCN(C(=O)c2ccc(-c3cc(O)c4ncccc4c3)cc2)CC1 [NCGC00244524-01],1.04e-05 M,-5.0486 Log AC50 (M),15.9 µM,-5.0486 Log AC50 (M) and -5.0986 Log AC50 (M),15.9 µM,–,–
CN(C)CCCNC(=O)c1cccc(-c2cc(O)c3ncccc3c2)c1 [NCGC00244527-01],1.22e-05 M,-4.7986 Log AC50 (M),8.94 µM,-5.0486 Log AC50 (M) and -4.8486 Log AC50 (M),14.2 µM,–,–
O=C(NCCCN1CCCCC1)c1cccc(-c2cc(O)c3ncccc3c2)c1 [NCGC00244529-01],1.04e-05 M,-4.7986 Log AC50 (M),8.94 µM,-5.0486 Log AC50 (M),14.2 µM,–,–

SMILES,"AC50 [1, 4]",Individual replicates / Log AC50 (M) [2],AC50 [2],Individual replicates / Log AC50 (M) [3],AC50 [3],"Calculated / Average Log AC50 (M) ([1]; mean of replicates, inhibitor, Calculated / Average Log AC50 (M))",AC50 ([1]; read-out: Calculated / Average Log AC50 (M) (converted))
CN(C)CC(C)(C)CNC(=O)c1cccc(-c2cc(O)c3ncccc3c2)c1 [NCGC00244532-01],1.17e-05 M,-4.7486 Log AC50 (M) and -5.0986 Log AC50 (M),–,-4.7986 Log AC50 (M) and -5.1486 Log AC50 (M) and -4.8486 Log AC50 (M),–,–,–
O=C(NCc1cccnc1)c1cccc(-c2cc(O)c3ncccc3c2)c1 [NCGC00244537-01],1.31e-05 M,-4.8486 Log AC50 (M),8.94 µM,-4.7986 Log AC50 (M),7.97 µM,–,–
CN(C)CCCOc1ccc(-c2cc(O)c3ncccc3c2)cn1 [NCGC00247741-01],9.65e-06 M,-4.7486 Log AC50 (M) and -5.0486 Log AC50 (M),–,-4.7986 Log AC50 (M) and -5.1486 Log AC50 (M) and -5.0986 Log AC50 (M),–,–,–
CN(C)CCCN1CCN(C(=O)c2cccc(-c3cc(O)c4ncccc4c3)c2)CC1 [NCGC00247746-01],1.53e-05 M,–,15.9 µM,-4.7486 Log AC50 (M),11.3 µM,–,–
CN(C)CCNC(=O)c1ccc(-c2cc(O)c3ncccc3c2)cc1 [NCGC00247749-01],1.13e-05 M,–,17.8 µM,-4.9986 Log AC50 (M) and -5.0486 Log AC50 (M),15.9 µM,–,–
O=C(O)c1ccc(O)c2ncc(N3CCCN(CCc4cccc5ccccc45)CC3)cc12 [NCGC00247751-02],9.65e-06 M,-5.2486 Log AC50 (M) and -4.7486 Log AC50 (M),–,-5.1486 Log AC50 (M),6.33 µM,–,–
O=C(c1cccc(-c2cc(O)c3ncccc3c2)c1)N1CCN(CCCN2CCOCC2)CC1 [NCGC00247764-01],2e-05 M,–,17.8 µM,–,17.8 µM,–,–
Cc1ccccc1CN1CCN(c2cnc3c(O)ccc(C(=O)O)c3c2)CC1 [NCGC00249382-01],1.65e-05 M,–,15.9 µM,–,14.2 µM,–,–
CC1CN(Cc2ccccc2)CCN1c1cnc2c(O)ccc(C(=O)O)c2c1 (stereo not shown) [NCGC00249384-01],1.59e-05 M,–,17.8 µM,–,14.2 µM,–,–
O=C(NCCCCN1CCOCC1)c1cccc(-c2cc(O)c3ncccc3c2)c1 [NCGC00249385-01],7.97e-06 M,-5.2486 Log AC50 (M) and -5.1486 Log AC50 (M) and -4.8486 Log AC50 (M),–,-5.1986 Log AC50 (M) and -4.8986 Log AC50 (M),6.33 µM,–,–
O=C(O)CCNc1cc(N2CCc3ccccc3CC2)nc(-c2cccnc2)n1 [NCGC00351549-02],–,-4.8486 Log AC50 (M) (2×) and -4.7986 Log AC50 (M),–,-4.9986 Log AC50 (M) and -4.8486 Log AC50 (M),14.2 µM,-4.8986 M,–
CCNC(=O)Oc1cc(-c2cccc(C(=O)NCCCc3ccccc3)c2)cc2cccnc12 [NCGC00372508-01],–,-5.0486 Log AC50 (M),6.33 µM,-5.1986 Log AC50 (M) and -4.7486 Log AC50 (M) and -5.0986 Log AC50 (M),–,–,9.65e-06 M
CCCOC(c1cc2nccc(C(=O)O)c2[nH]1)c1ccccc1Cl (stereo not shown) [NCGC00381656-01],1.04e-05 M,-4.9486 Log AC50 (M),15.9 µM,-5.0486 Log AC50 (M) and -4.7986 Log AC50 (M),7.97 µM,–,–
O=C(O)c1ccncc1Nc1nn(CCN2CCC(F)(F)CC2)c2ccc(F)cc12 [NCGC00384162-01],1.93e-05 M,–,17.8 µM,–,15.9 µM,–,–
O=[S+]([O-])(c1nc2ccccc2[nH]1)N(CCc1ccccc1)CCN1CCCCC1 [NCGC00389114-01],4.15e-06 M,-5.6986 Log AC50 (M) and -5.2486 Log AC50 (M),–,-5.5486 Log AC50 (M) (2×) and -5.0486 Log AC50 (M),–,–,–
CCOC(=O)c1c2ccc(C(=O)N3CCOCC3)cc2n2ccccc12 [NCGC00390098-01],1.26e-05 M,–,7.1 µM,-5.0486 Log AC50 (M),14.2 µM,–,–
O=C(O)c1c2ccc(C(=O)N3CCOCC3)cc2n2ccccc12 [NCGC00390822-01],2e-06 M,-5.5986 Log AC50 (M),2.52 µM,-5.7986 Log AC50 (M) and -5.7486 Log AC50 (M),2.83 µM,–,–

# From paper PMC7822874, “Chemoprotective antimalarials identified through quantitative high-throughput screening of Plasmodium blood and liver stage parasites” (Scientific Reports, 2021)
